These results are taken from US20200131249A1, “NOVEL PROTEINS AND USE THEREOF” (EVOLVERITAS KFT., priority 2017, published 2020).

pIC50, pKi: −log10 of the molar value. Where no end group is shown, it is not given here.

One assay addresses T1, human MASP-3 (Homo sapiens, UniProt P48740).
T1 construct: catalytic enzyme fragments containing the three C-terminal domains: CCP1-CCP2-SP
T1 sequence (P48740 450-728 isoform P48740-2 limits assumed): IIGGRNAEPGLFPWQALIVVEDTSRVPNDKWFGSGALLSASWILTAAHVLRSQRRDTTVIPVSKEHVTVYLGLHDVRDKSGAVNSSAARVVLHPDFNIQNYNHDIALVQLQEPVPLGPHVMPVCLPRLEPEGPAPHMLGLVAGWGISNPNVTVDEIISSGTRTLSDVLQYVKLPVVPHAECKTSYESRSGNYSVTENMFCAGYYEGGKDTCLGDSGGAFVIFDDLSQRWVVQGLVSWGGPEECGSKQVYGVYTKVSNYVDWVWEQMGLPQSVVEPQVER
Briefly: KI determination on human MASP-3 catalytic fragment. It counts as biochemical. Conditions: for pKi: catalytic fragment, Z-L-Lys-SBzl. On the procedure: (§1) The inhibition equilibrium constant (KI) of all four inhibitor variants produced was measured on human MASP-2 and rat MASP-2. Additionally, KI values were measured also on human MASP-1 and human MASP-3 to assess the specificity of the inhibitors amongst the MASP enzymes. KI values of the inhibitors on bovine trypsin, a pancreatic model enzyme was also measured.
(§2) For determining the KI of the inhibitors on MASP enzymes we used catalytic enzyme fragments containing the three C-terminal domains: CCP1-CCP2-SP. The synthetic substrate used in the measurements was Z-L-Lys-SBzl hydrochloride (Sigma, C3647), from which a 10 mM stock solution was prepared. The reactions were performed in a volume of 0.2 ml at room temperature in a buffer consisting of 20 mM HEPES; 145 mM NaCl; 5 mM CaCl2; 0.05% Triton-X100. The substrate cleaved by the enzyme entered into a reaction with the 5,5′-Dithiobis(2-nitrobenzoic acid) (DTNB, Ellman's reagent, Sigma—D8130) auxiliary substrate present in the solution in 2-fold excess to Z-L-Lys-SBzl. The release of the chromophore group created in this way was monitored via the change of absorbance at 410 nm using a BioTek Synergy H4 multimode microplate reader.
(§3) A dilution sequence was prepared from the individual inhibitors, the enzyme was added to it, and it was incubated for 2 hours at room temperature. The samples were transferred on a 96-well microtiter plate (Nunc 269620). The reactions were started by adding the mixture of the substrate and the auxiliary substrate to the samples. The concentration of the substrate and the length of the measuring period were chosen so that under the given conditions the enzyme should consume less than 10% of the substrate. In this case we used 250 μM Z-L-Lys-SBzl and 500 μM DTNB in the reactions. In the course of measuring, a method developed for the characterisation of tight-binding inhibitors was used (Empie, 1982). The concentration of the product was measured as a function of reaction time. The slope of the straight line determined for the initial phase of the reaction was normalised with the slope obtained for the uninhibited enzyme reaction, and this value was multiplied with the total enzyme concentration. As a result of this we obtained the free enzyme concentration, which was plotted as a function of the total inhibitor concentration and the Ki value was determined according to the following equation:
(§4) E=y=E0−(E0+x+Ki−(((E0+x+Ki)^2)−4*E0*x)^(½))/2,
(§5) where E is the free (uninhibited) enzyme concentration, and E0 is the total enzyme concentration. The stock concentration of the inhibitors was determined by titration with bovine trypsin of known concentration. The results were calculated as the average of parallel measurements.

The target in a further assay is MASP-2 (Homo sapiens, UniProt O00187). On the set-up: host or cells: diluted serum. Conditions: Wouters 2011; Keizer 2015; read-out: IC50 of MASP-2 inhibition in solid phase ELISA assay with diluted serum; cited from earlier work. In general terms: ELISA stands for enzyme-linked immunosorbent assay.
Chain of MASP-2 (O00187 16-686, species assumed): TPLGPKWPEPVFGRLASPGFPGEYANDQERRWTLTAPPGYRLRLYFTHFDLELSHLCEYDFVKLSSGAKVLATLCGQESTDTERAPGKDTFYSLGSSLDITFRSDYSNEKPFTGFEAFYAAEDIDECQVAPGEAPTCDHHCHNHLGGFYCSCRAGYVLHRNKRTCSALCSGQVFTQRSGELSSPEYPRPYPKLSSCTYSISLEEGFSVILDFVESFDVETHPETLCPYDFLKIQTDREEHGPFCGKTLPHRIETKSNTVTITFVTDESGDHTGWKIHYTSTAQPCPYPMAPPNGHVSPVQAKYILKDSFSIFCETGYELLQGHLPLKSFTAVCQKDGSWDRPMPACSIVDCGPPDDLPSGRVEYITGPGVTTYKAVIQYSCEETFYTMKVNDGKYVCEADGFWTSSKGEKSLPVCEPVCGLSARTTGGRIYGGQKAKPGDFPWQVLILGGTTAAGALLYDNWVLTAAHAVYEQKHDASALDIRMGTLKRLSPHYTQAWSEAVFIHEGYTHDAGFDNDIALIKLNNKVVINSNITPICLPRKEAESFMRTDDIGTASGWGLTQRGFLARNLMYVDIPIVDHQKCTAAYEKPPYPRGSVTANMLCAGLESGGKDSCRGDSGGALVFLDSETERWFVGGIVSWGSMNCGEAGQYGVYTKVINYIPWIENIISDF
The target in the next assay is porcine trypsin (Sus scrofa, UniProt P00761). Conditions: Petersen 1996; read-out: KI towards porcine trypsin; cited from earlier work.
Chain of porcine trypsin (P00761 9-231): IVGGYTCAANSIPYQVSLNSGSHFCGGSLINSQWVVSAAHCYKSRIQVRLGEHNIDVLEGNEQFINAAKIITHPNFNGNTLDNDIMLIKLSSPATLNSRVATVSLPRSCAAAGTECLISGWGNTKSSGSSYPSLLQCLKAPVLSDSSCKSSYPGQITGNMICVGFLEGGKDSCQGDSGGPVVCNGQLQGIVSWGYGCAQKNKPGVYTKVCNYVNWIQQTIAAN
The next assay deals with T2, human MASP-1 (Homo sapiens, UniProt P48740).
T2 construct: catalytic enzyme fragments containing the three C-terminal domains: CCP1-CCP2-SP
T2 sequence (P48740 449-699 limits assumed): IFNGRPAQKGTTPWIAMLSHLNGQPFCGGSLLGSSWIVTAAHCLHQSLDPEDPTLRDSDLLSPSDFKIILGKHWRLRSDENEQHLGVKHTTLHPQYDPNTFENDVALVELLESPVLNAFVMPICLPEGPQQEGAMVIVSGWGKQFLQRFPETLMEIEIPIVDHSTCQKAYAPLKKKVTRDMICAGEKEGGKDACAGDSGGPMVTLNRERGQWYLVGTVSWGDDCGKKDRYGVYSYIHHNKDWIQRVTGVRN
T2 sequence (P48740 298-448 partner limits assumed): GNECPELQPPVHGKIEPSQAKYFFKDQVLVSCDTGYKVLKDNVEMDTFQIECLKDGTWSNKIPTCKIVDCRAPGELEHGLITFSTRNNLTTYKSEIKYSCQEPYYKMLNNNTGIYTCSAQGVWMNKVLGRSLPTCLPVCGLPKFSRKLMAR
Kind of assay: KI determination on human MASP-1 catalytic fragment. It counts as biochemical. On the set-up: key to KI on human MASP-1: N.E.: not effective. Particulars: for KI on human MASP-1: catalytic fragment, Z-L-Lys-SBzl. On the procedure:
as §1, §2, §3, §4, §5

The subject of the next assay is intrinsic pathway. Briefly: Activated partial thromboplastin time (APTT) in human plasma. Here is the method: (§6) Blood coagulation measurements using blood plasma taken from healthy human individuals were also performed. From the blood obtained through venipuncture and treated with sodium citrate (3.8% wt/vol) the plasma was isolated by centrifugation (2,000 g, 15 minutes, Jouan CR412 centrifuge).
(§7) The effect of the protein variants of the present invention on the blood coagulation process was tested in three standard assays, the thrombin time, testing any direct effects on thrombin; prothrombin time, testing any effects on the extrinsic pathway; and the activated partial thromboplastin time, testing any effects on the intrinsic pathway. Blood was collected from a healthy individual by vein puncture after informed consent. The blood was treated with sodium-citrate (3.8% w/v) and centrifuged. All three assays were performed on the automated instrument Sysmex CA-1500 (Sysmex) with Innovin reagent (Dale Behring, Marburg, Germany).
(§8) The inhibitors were applied in a fivefold serial dilution with the highest final concentration being 36 μM. This value is 3-4 orders of magnitudes higher than the KI values of the three protein variants of the present invention on human MASP-2. Even at the highest concentration the protein variants of the present invention have only little effect in the APTT test and no effect in the PT and TT tests.

Another assay deals with extrinsic pathway. Briefly: Prothrombin time (PT) in human plasma. Here is the method:
as §6, §7, §8

Another assay deals with thrombin. Briefly: Thrombin time (TT) in human plasma. On the procedure:
as §6, §7, §8

The next assay has as its target T3, rat MASP-2 (Rattus norvegicus, UniProt Q9JJS8).
T3 construct: made in house
Briefly: KI determination on rat MASP-2 catalytic fragment. It counts as biochemical. Particulars: KI ratio. On the procedure: as §1
For determining the KI of the inhibitors on MASP enzymes we used catalytic enzyme fragments containing the three C-terminal domains: CCP1-CCP2-SP. The synthetic substrate used in the measurements was Z-L-Lys-SBzl hydrochloride (Sigma, C3647), from which a 10 mM stock solution was prepared. […] The release of the chromophore group created in this way was monitored via the change of absorbance at 410 nm using a BioTek Synergy H4 multimode microplate reader.
A dilution sequence was prepared from the individual inhibitors, the enzyme was added to it, and it was incubated for 2 hours at room temperature. […] The concentration of the product was measured as a function of reaction time. The slope of the straight line determined for the initial phase of the reaction was normalised with the slope obtained for the uninhibited enzyme reaction, and this value was multiplied with the total enzyme concentration. […]

T3 sequence (Q9JJS8 with tags, fused parts or gaps L506P/I507H/R622A): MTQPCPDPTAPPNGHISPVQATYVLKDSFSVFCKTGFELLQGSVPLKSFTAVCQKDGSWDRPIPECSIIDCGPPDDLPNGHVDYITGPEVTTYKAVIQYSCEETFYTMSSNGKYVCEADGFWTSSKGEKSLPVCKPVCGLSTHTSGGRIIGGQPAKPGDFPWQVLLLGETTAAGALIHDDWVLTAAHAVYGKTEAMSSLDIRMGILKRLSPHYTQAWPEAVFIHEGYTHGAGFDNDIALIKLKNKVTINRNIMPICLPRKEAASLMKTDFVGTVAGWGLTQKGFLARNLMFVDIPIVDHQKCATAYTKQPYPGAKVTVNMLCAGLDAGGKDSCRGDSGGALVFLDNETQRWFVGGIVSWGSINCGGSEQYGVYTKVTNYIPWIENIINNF

Regarding TFPI-D2 [reference compound], the pKi with human MASP-3 was < 4.52; with porcine trypsin, 10.00. Moreover, the “inhibition of MASP-3” value with human MASP-3 (result in words) was “No considerable inhibition”. Besides, in the assay with MASP-2, the pIC50 is 5.00. In the assay with human MASP-1, the “KI on human MASP-1” value is reported as “N.E”. The “inhibition of MASP-1” value with human MASP-1 (result in words) is “No considerable inhibition”.

“SEQ ID NO: 11: TFPI-D2 variant protein with inhibitor loop FCRAVKR (SEQ ID NO: 1) (KPDFCFLEEDPGFCRAVKRRYFYNNQTKQCERFKYGGCLGNMNNFETLEECKNICEDG; ends and bridges not checked; cysteine pairing not given here)”: the pKi with human MASP-3 was < 4.52. The APTT in the assay with intrinsic pathway (inhibitor 0.1 μM) is 36.3 s; with intrinsic pathway (inhibitor 0.3 μM) it was 36.5 s; with intrinsic pathway (inhibitor 1.4 μM), 37.0 s; in the assay on intrinsic pathway (inhibitor 7.2 μM), 39.3 s; in the assay with intrinsic pathway (inhibitor 36.0 μM), 46.0 s. Also, the PT in the assay on extrinsic pathway (inhibitor 0.1 μM) is reported as 10.7 s; in the assay on extrinsic pathway (inhibitor 0.3 μM) it was 10.8 s; in the assay on extrinsic pathway (inhibitor 1.4 μM), 11.0 s; in the assay with extrinsic pathway (inhibitor 7.2 μM), 11.0 s; with extrinsic pathway (inhibitor 36.0 μM) it was 11.4 s. In addition, the TT was found to be 16.5 s in the assay on thrombin (inhibitor 0.1 μM); 16.6 s in the assay on thrombin (inhibitor 0.3 μM); 16.7 s in the assay on thrombin (inhibitor 1.4 μM); 16.4 s in the assay with thrombin (inhibitor 7.2 μM); 16.0 s in the assay on thrombin (inhibitor 36.0 μM). Further, the “KI on human MASP-1” value with human MASP-1 was “N.E”.

Take “SEQ ID NO: 17: TFPI-D2 variant protein with inhibitor loop VCRAVKR (SEQ ID NO: 7) (KPDFCFLEEDPGVCRAVKRRYFYNNQTKQCERFKYGGCLGNMNNFETLEECKNICEDG; ends and bridges not checked; cysteine pairing not given here)”: the pKi with human MASP-3 was < 4.52. Moreover, in the assay with rat MASP-2, the “fold more potent than SGMI-2 on rat MASP-2” value is on record as “about 3 fold”. For the same substance, the APTT amounted to 36.8 s in the assay on intrinsic pathway (inhibitor 0.1 μM); 37.2 s in the assay with intrinsic pathway (inhibitor 0.3 μM); 38.1 s with intrinsic pathway (inhibitor 1.4 μM); 40.6 s with intrinsic pathway (inhibitor 7.2 μM); 47.4 s in the assay on intrinsic pathway (inhibitor 36.0 μM). In addition, the PT is recorded as 10.8 s in the assay with extrinsic pathway (inhibitor 0.1 μM); 10.8 s with extrinsic pathway (inhibitor 0.3 μM); 10.8 s with extrinsic pathway (inhibitor 1.4 μM); 10.9 s in the assay with extrinsic pathway (inhibitor 7.2 μM); 11.4 s in the assay on extrinsic pathway (inhibitor 36.0 μM). Also, the TT is given as 16.6 s in the assay on thrombin (inhibitor 0.1 μM); 16.3 s in the assay on thrombin (inhibitor 0.3 μM); 16.4 s with thrombin (inhibitor 1.4 μM); 16.4 s in the assay on thrombin (inhibitor 7.2 μM); 16.0 s in the assay on thrombin (inhibitor 36.0 μM). Moreover, the “KI on human MASP-1” value in the assay with human MASP-1 was “N.E”.

What is called pKi is the Ki on a negative log10 scale, so that one unit is a factor of ten. As usually defined, the pIC50 is −log10 of the IC50, conventionally taken in molar units.
